Literature values as cited in paper PMC8915598.

Assay: not told

Row | Compound | log partition octanol / water [log10]
1 | CC(=O)Nc1ccc(Cl)cc1 | 2.12
2 | NC(=O)c1ccc(N)cc1 | -0.41
